From patent US20260275280A1, “DIRECTED DIFFERENTIATION PROTOCOLS TO DERIVE BONE FIDE SPINAL SENSORY INTERNEURONS” (THE REGENTS OF THE UNIVERSITY OF CALIFORNIA, priority 2022, published 2026)
Entries after “also recorded” stand apart in the source; their conditions may differ.

Tests used:
Assay type in all cases: cell-based, mouse
[1] = system: dorsal NPCs in mESC-derived EBs; assay: Embryoid body proliferation assay (EdU incorporation, pH3) with CHIR
Experimental: Embryoid body (EB) culture. and expansion: To initiate EB formation, dissociated embryonic stem cells were seeded in low attachment plates (Corning) at 10^5 cells/ml density in N2/B27 medium supplemented with 10 ng/ml bFGF. To induce posterior spinal cord and dorsal spinal patterning, RA and RA+BMP4 were added using the same timeline as described for the 2D differentiation, and the media was changed at every other day after day 5.
For EBs, EBs were collected and fixed with fresh 4% PFA for 20 minutes at 4° C. EBs were then equilibrated with 30% sucrose for overnight at 4C and embedded into the OCT compound for cryo-sectioning. 12 um sections were collected onto positive charged slides (VVVR), incubated with the antibody blocking solution for 1 hr, and then stained as above.
Image quantification: To count the number of nuclei, images were converted to 8 bit image in ImageJ, their threshold intensity was adjusted to capture only the florescent nuclei, and the number of nuclei counted using the analyze particle tool in ImageJ. For each image, the area under the DAPI staining was determined using ImageJ and target cells were represented as % of cells in 100 μm^2 DAPI^+ area.
We then asked whether activating Wnt signaling in mESC-derived NMPs affected their mitotic index. To better visualize proliferation, mESCs were permitted to assemble into three dimensional EBs (Andrews et al., 2017; Duval et al., 2019; Gupta et al., 2018), and then treated with RA±BMP4 over the same timeline as protocol 1 and 3 (FIG. 1B) to induce dorsal spinal cord patterning. EBs were then cultured with either DMSO or CHIR from day 5 to day 9 (FIG. 6C), when the cultures were pulsed with 5-Ethynyl-2′-deoxyuridine (EdU) to label cells in S-phase of the cell cycle. Strikingly, there was a ~3-fold increase in EdU+cells in CHIR-treated EBs (FIG. 6E, 6G, 6H) compared to DMSO control (FIG. 6D, 6F, 6H) in both protocols. […] Many of the dividing cells in the CHIR-treated cultures were Sox2+NPCs (FIG. 6E, 6G), while NPCs are largely depleted by day 9 in control cultures (FIG. 6D, 6F). Thus, extending the window of Wnt signaling appears to prolong NPC proliferation.

[2] = system: mESCs derived spinal NPCs; assay: Sufficiency of Wnt ligands or CHIR for dI fates (RT-qPCR at day 9)
Experimental: The mouse ESC line, MM13, was routinely maintained in ES cell media (DMEM+20% FBS) with 100u/ml of mouse leukocyte inducing factor (LIF). […] To prepare cells for the differentiation, ESC colonies were dissociated with 0.25% trypsin and plated on gelatin coated plates at 1:10 dilution to reduce MEF transfer. Cells cultured on gelatin coated plates and allowed to proliferate for 1-2 days. To initiate differentiation, cells were plated on 0.1% gelatin coated 24-well CellBIND dishes (Corning) at 20,000 cells/ml density in 0.5 ml/well N2/B27 medium that contains 10 ng/ml basic fibroblast growth factor (bFGF). The N2/B27 medium contains 1:1 portions of Advanced Dulbecco's modified Eagle Media (DMEM) F12 (Hyclone) and Neurobasal media (Thermo Fisher Scientific) supplemented with 0.5×N2, 1×B27 supplement (with Vitamin A), 2 mM L-glutamine, 0.1 mM 2-mercaptoethanol (ME), and 1% BSA. On day 1, small colonies of cells can be observed attached to the bottom of the wells. On day 2, cells were supplemented with 10 ng/ml bFGF and 5 μM CHIR99021 for 24 hours to induce a neuromesodermal identity (Gouti et al., 2014). On day 3, media was changed as follows: for protocol 1, cells were exposed to 100 nM RA for 48 hrs. For protocol 2, 10 ng/ml human recombinant BMP4 (Thermo Fisher Scientific) was added concomitantly with 100 nM RA (RA+BMP4) for 48 hrs. For protocol 3, cells were exposed to 100 nM RA for 24 hrs, followed by a pulse of RA+BMP4 for another 24 hours. To induce terminal differentiation in all three conditions, the medium containing growth factors was replaced with basic N2/B27 medium at day 5, and cell allowed to differentiate to day 9. At the end of the differentiation, the cultures were fixed for immunohistochemical analysis or lysed to obtain RNA for RNA-Seq or quantitative reverse transcriptase PCR analysis.
Quantitative (a) RT-PCR analysis: RNA was isolated with RNeasy Mini Kit (Qiagen, cat no. 74104), and converted to cDNA using Superscript IV First Strand Synthesis kit (Thermo Fisher Scientific). qRT-PCR was performed using SYBR Green PCR Master Mix (Applied Biosystems) on Roche 480 Lightcycler (Roche). The relative fold expression was calculated using 2-AACt method of comparing the expression of the target gene with that of the housekeeping gene glyceraldehyde 3-phosphate dehydrogenase (Gapdh). All experiments were repeated at least 2-3 times (technical replicates) from at least two independent differentiations (biological replicates), and data is represented as mean±SEM.
We assessed these models, first by determining the effect of canonical Wnts (Wnt1, Wnt2, and Wnt3a), a non-canonical Wnt (Wnt9b) and a small molecule Wnt agonist (CHIR99021) on dI identity in the RA±BMP4 protocols. When Wnts were added in combination with RA, they were unable to induce the dorsal-most dIs by day 9 (FIG. 14A). […] Thus, Wnts are not sufficient to direct dI fate identity.

[3] = system: CHIR-expanded EBs; assay: Differentiation of CHIR-expanded EBs on Matrigel (IHC, RT-qPCR at day 10)
Experimental: Embryoid body (EB) differentiation: To induce differentiation, EBs were dissociated into smaller clumps by a 5-7-minute treatment with cold 0.25% Trypsin (Gibco), followed by trituration. Trypsin was neutralized with 1:1 addition of Trypsin inhibitor (Sigma-Aldrich) and cells were pelleted by centrifugation at 1000RPM. Cell pellets were resuspended in N2/B27 medium (without growth factors) and plated onto a Matrigel precoated plate. In our experience, the single cell suspension of 100-150 EBs provided enough cells to seed one 24-well plate. […] At the end of 10 days, multiple neural processes can be visualized by phase contrast microscopy and cultures were either fixed with 4% PFA for immunohistochemistry or lysed to extract RNA in RLT buffer (Qiagen). […] CHIR withdrawal), or DAPT, a pro-differentiation agent (Crawford and Roelink, 2007) (FIG. 7J). […] This strategy was successful at restoring almost all dI identities in cultures taken from EBs both at the earliest passage and at the latest passage assessed (passage 7;

[4] = RA±BMP4 patterned EBs, CHIR day 5 to day 9

Row | Structure (SMILES) | increase in EdU+ cells compared to DMSO control [1, 4] | increase in the number of pHistone H3 (pH3)+ cells compared to control [1, 4] | increase in cell proliferation (EdU+ and pH3+ cells) compared to DMSO ([1]; RA±BMP4 patterned EBs, n=15-25 EBs) | identity of CHIR-treated NPCs (Pax3, Pax7, Olig3) ([1]; protocol 1 and protocol 3 EBs, day 9) | identity of the BMP4-mediated dI fates (Lhx2, Foxd3, IsI2) ([2]; RA+BMP4 protocol, Wnts 100 ng/ml or CHIR 5 μM for 24 hrs at day 5) | induction of BMP4 dependent dI fates (Lhx2, Foxd3, IsI1) ([2]; added with RA at day 4 for 24 hrs, Wnts 100 ng/ml, CHIR 5 μM) | identity of cultures kept in CHIR by day 10 ([3]; passage 6 or 7 EBs dissociated onto Matrigel) | effect of CHIR removal on differentiation ([3]; passage 6 or 7 EBs, day 10) | increase in the number of dI4/dI6s (Pax2+) compared to control ([3]; pulse between day 3 and 5 during differentiation of expanded EBs)
1 | Cc1c[nH]c(-c2cnc(NCCNc3ccc(C#N)cn3)nc2-c2ccc(Cl)cc2Cl)n1 [CHIR, CHIR99021] | ~ 3 fold | 2-4 fold | ~ 3 fold | retained their original identity; also recorded: does not significantly (unpaired t-test) alter their dorsal-ventral identities | no significant effect | do not induce BMP4-dependent dI fates | continued to be solely Sox2^+ | removal of CHIR triggers spontaneous neural differentiation | –
2 | CC1=C(/C=C/C(C)=C/C=C/C(C)=C/C(=O)O)C(C)(C)CCC1 [RA, retinoic acid] | – | – | – | – | – | – | – | – | ~ 6 fold
